Measured values from patent US20020137901A1, “Synthesis, and photodynamic therapy-mediated anti-cancer, and other uses of chlorin e6-transferrin” (priority 2001, published 2002).

Tests used:
[1] = test system: Rat MTLn3 mammary adenocarcinoma cells; test: Low serum growth assay; format: cell-based; conditions: αMEM 0.3% FBS, increasing levels of protein, four days
Description: FIG. 2. Effect of chorin e6 on the growth of Rat MTLn3 mammary adenocarcinoma cells. Cells were plated at 2,000 cells/well in 96 well plates in ∝MEM containing 5% FBS. One day after plating, media was changed to ∝MEM containing 0.3% FBS. Increasing levels of human holo-Tf (Native Tf) or human Ce6-Tf (both in PBS) were added to respective wells, in the amount indicated. Four days later, cells were quantitated using a crystal violet stain assay, where A590 correlates with cell number. A: an image of the crystal violet stained plate used in the assay is shown. B: A plot of the absorbances from A. Cell number and is seen to rise as the cells are exposed to increasing levels of native human Tf.
Growth assays: Rat MTLn3 mammary adenocarcinoma cells were plated at 2,000 cells/well in 96 well plates in ∝MEM containing 5% FBS. One day after plating, media was changed to ∝MEM containing 0.3% FBS. Increasing levels of human holo-Tf or human Ce6-Tf (both in PBS) were added to respective wells. Four days later, cells were quantitated using a crystal violet stain assay.

transferrin receptor = target: T1, transferrin receptor (Rattus norvegicus, UniProt Q99376); test: Competition of FITC-Tf binding to cell surfaces (Western blot detection); conditions: competitor 1 mg/ml, FITC-Tf 100 μg/ml, 4° C., 2 h
T1 construct: endogenous in cells; host or cells: Rat MTLn3 mammary adenocarcinoma cells (intact monolayers at 4 °C)
Description: FIG. 4. Competition of FITC-Tf binding to cell surfaces by Ce6-Tf. Transferrin solvent, human Ce6-Tf, or native human Tf were added to Rat MTLn3 mammary adenocarcinoma cell monolayers equilibrated to 4° C. The final concentration of both transferrins was 1 mg/ml. FITC- human Tf was then added to all wells at 100 μg/ml. After a 2 h incubation, cells were washed, lysed, electrophoresed, blotted, and examined for FITC content by incubation with anti-FITC and an HRP-conjugated second antibody, followed by ECL. A strong band at 70,000 Kd was seen from cell lysates which received FITC-Tf only (lanes 4 and 5), indicating FITC-Tf binding to the cells. […] Lanes 1-3 were loaded with known amounts of pure FITC-Tf, for standardization. An image of the ECL X-ray film is shown.
Competition binding: This measures the ability of a material to inhibit the binding of FITC-transferrin to cell surfaces. FITC-Tf bound to the cells is detected by Western blotting of cell lysates and specific antibody-based detection of FITC in those. Rat MTLn3 mammary adenocarcinoma cells were grown to confluence in 12 well plates using media consisting of ocMM containing 5% v/v fetal bovine serun (FBS). […] Lysate protein was determined using the BCA assay (Pierce Chemical). […] The blot was blocked and FITC-TF was detected by treatment with rabbit anti-FITC then with anti-rabbit IG-HRP followed by ECL using an HRP substrate.

MTLn3 cells [2] = test: Cell killing assay, protocol B (serum-containing, one-day exposure); format: cell-based, rat
Description: (§1) FIG. 6. […] This was a one-day exposure, serum-containing assay performed using protocol B described in the cell killing section. Cells were plated in 24 well plates and grown to confluency. On day one, media was changed and increasing levels of Ce6-Tf were added to test wells to a final concentration from 7.5 to 30 ug/ml. Native Tf was added to control wells at 30 ug/ml. On day 2, media was changed to that without added Ce6-Tf or Tf. On days 2, 3, and 4, cells were exposed to light from an X-ray film box for 15 min. Media was changed each day. On day five, all cells were fixed, stained, and quantitated using the crystal violet stain assay. Stained cell numbers were evaluated using a Bio-Rad Multi-imager. Images of the stained plates are shown in A and B. The results of image analysis are shown in C and D, where ODU/mm2 correlates with cell number.
(§2) FIG. 8. A: Effect of Ce6 alone on the viability of Rat MTLn3 cells. Cells were tested as per method B outlined in the cell killing procedure description. Confluent cells in ∝MEM containing 5% FBS were exposed to the indicated concentrations of Ce6, Ce6-Tf, or Tf alone. One day later, media was changed to that without added Ce6-Tf or Tf, and all cells were exposed to light for 15 min. This was repeated on days two and three. Cells were then fixed and stained with Coomassie blue. An image of the stained wells is shown. […] B: Effect of excess Tf on the killing effect of Ce6-Tf Cells were set up similarly as above, except that treatments consisted of Ce6-Tf, or Ce6-Tf in conjunction with 500 or 1,000 μg/ml native Tf. Light exposure, media changes, and cell staining were carried out as in A. An image of the stained wells is shown.
(§3) B: Serum-containing, one day exposure assays. For these, serum was maintained, to emulate in vivo conditions where excess endogenous normal transferrin would be present. In addition, the Ce6-Tf exposure was limited to I day to emulate a one time Ce6-Tf injection. Target cells were grown to confluence in 24 well plates. On the day of the assay, media in all wells was replaced with 1 ml of fresh serum-containing media and increasing levels of Ce6-Tf added to test wells. Native human holo-Tf was added, at the highest Ce6-Tf dose, to control wells. One day after Tf addition, media in all plates was changed to normal culture media (without Ce6Tf).
With both assay methods, two plates for each line to be tested were plated and treated identically. One day after Ce6-Tf addition, test plates were exposed to the light from an X-ray film box for 15 min.: the box was placed horizontally and the culture plates placed directly on the cover glass. The parallel plate from a given line was kept in the dark. The light treatment was repeated for 3 days. Media was changed (with [A] or without [B] added Ce6-Tf ) each day, to maintain cell viability. On the fourth day, the cells were quantitated using a crystal violet stain assay: wells were drained and washed 4 times with 2 ml PBS; cells were fixed with 1 ml 5% v/v glutaraldehyde (in PBS) at 25° C. for 20 min.; wells were washed 4 times with 2 ml distilled water and stained with 1 ml of a 1:1 (v:v) mixture of 0.2% (w/v) crystal violet and 100 mM CAPS (pH 9.0). Wells were drained and washed 4 times with 2 ml distilled water. After drying, cell density was determined using a Bio-Rad Multiimager, where ODU/mm2 correlates with cell number.
Effect of Ce6 alone: To determine if Ce6 alone, if added in appropriate concentrations, would induce cell death. […]

MTLn3 cells [3] = test: Transferrin competition of cell killing; format: cell-based, rat; conditions: MTLn3, 30 ug/ml Ce6Tf plus 500 or 1,000 μg/ml native Tf, light
Description: as §2
Transferrin competition of cell killing: These were performed to ensure that Ce6-Tf's cell killing effect was due to the function of the transferrin ligand: that the light-induced killing effect could be neutralized with excess native Tf Method B. from above was used. Confluent cultures of MTLn3 cells in 24 well plates were treated with 30 ug/ml of Ce6Tf. […] Light-induced killing assays were continued and cells quantitated as stated above in method B.

[4] = test system: Rat MTLn3 mammary adenocarcinoma cells; test: Cell killing assay, protocol A (serum-free, continuous exposure); format: cell-based; conditions: 1.25 to 5.0 μg/ml
Description: FIG. 5. […] This was a continuous exposure, serum-free assay performed using protocol A described in the cell killing section. Cells were plated in 24 well plates and grown to confluency in ∝MEM containing 5% v/v FBS. On day one, media was changed to ∝MEM only and increasing levels of Ce6-Tf were added to test wells to a final concentration from 1.25 to 5.0 μg/ml. Native Tf was added to control wells at 5.0 μg/ml. On days 2, 3, and 4, cells were exposed to light from an X-ray film box for 15 min. Media and all Tf was changed each day. On day five, all cells were quantitated using the crystal violet stain assay. Images of the stained plates are shown in A. Stained cell numbers were evaluated using a Bio-Rad Multi-imager. The results of image analysis are shown in B, where ODU/mm2 correlates with cell number. […]
(§4) With both assay methods, two plates for each line to be tested were plated and treated identically. […] On the fourth day, the cells were quantitated using a crystal violet stain assay: wells were drained and washed 4 times with 2 ml PBS; cells were fixed with 1 ml 5% v/v glutaraldehyde (in PBS) at 25° C. for 20 min.; wells were washed 4 times with 2 ml distilled water and stained with 1 ml of a 1:1 (v:v) mixture of 0.2% (w/v) crystal violet and 100 mM CAPS (pH 9.0). […] After drying, cell density was determined using a Bio-Rad Multiimager, where ODU/mm2 correlates with cell number.

NRK cells = test: Cell killing assay, protocol B (serum-containing, one-day exposure); format: cell-based, rat
Description: as §1, §3, §4

[5] = test system: Human MCF7 breast cancer cells; test: as above; format: cell-based; conditions: MCF7, 7.5 to 30 ug/ml
Description: FIG. 7. […] Cells were plated in 24 well plates and grown to confluency. On day one, media was changed and increasing levels of Ce6-Tf were added to test wells to a final concentration from 7.5 to 30 ug/ml. Native Tf was added to control wells at 30 ug/ml. On day 2, media in all wells was changed to that without added Ce6-Tf or Tf On days 2, 3, and 4, cells were exposed to light from an X-ray film box for 15 min. Media was changed each day. On day five, all cells were fixed, stained, and quantitated using the crystal violet stain assay. Stained cell numbers were evaluated using a Bio-Rad Multi-imager. Images of the stained plates are shown in A. The results of image analysis are shown in B, where ODU/mm2 correlates with cell number. […]
as §4

T1 sequence (Q99376 whole entry): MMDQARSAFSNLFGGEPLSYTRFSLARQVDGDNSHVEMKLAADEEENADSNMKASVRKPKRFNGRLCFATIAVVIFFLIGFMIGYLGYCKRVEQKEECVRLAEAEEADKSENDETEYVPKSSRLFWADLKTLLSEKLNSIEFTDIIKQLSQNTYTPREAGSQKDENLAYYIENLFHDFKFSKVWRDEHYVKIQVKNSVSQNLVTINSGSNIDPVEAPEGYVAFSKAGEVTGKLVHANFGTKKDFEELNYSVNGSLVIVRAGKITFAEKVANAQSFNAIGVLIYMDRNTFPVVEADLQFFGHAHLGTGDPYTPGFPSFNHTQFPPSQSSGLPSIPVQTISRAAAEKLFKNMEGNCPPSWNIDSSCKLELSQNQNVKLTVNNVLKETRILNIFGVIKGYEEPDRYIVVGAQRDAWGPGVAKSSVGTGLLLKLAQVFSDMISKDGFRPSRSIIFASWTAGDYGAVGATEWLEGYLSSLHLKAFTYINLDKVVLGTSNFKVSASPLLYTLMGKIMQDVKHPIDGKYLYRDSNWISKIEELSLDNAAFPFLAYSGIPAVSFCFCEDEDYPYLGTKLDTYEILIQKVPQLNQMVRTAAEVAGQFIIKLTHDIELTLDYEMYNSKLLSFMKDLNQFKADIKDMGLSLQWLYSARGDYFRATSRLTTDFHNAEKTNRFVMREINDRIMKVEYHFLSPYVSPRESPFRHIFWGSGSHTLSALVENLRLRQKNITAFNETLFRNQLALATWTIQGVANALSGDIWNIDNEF

| Substance | Effect on cell growth (cell number, crystal violet A590) [1] | Competition of FITC-Tf binding to cell surfaces (transferrin receptor) | Cell killing effect of Ce6 alone with light (MTLn3 cells [2]; MTLn3, method B, free Ce6 4.3 uM (2.5 μg/ml), light 15 min on three days) | Killing effect of Ce6-Tf in presence of excess native Tf (MTLn3 cells [3]) | Cell killing with light exposure (cell number, ODU/mm2) ([4]; light 15 min on days 2, 3, 4) | Cell numbers, plates kept in the dark ([4]; no light) | Change in cell numbers at the 15 ug/ml dose with light (NRK cells; 15 ug/ml, light) | Cell numbers, plates maintained in the dark (NRK cells; 7.5 to 30 ug/ml, no light) | Cell killing with light exposure (cell number, ODU/mm2) (NRK cells; 7.5 to 30 ug/ml, one-day exposure, light 15 min on days 2, 3, 4) | Change in cell numbers at the 15 ug/ml dose with light (MTLn3 cells [2]; MTLn3, 15 ug/ml, light) | Cell numbers, plates maintained in the dark (MTLn3 cells [2]; MTLn3, 7.5 to 30 ug/ml, no light) | Cell killing with light exposure (cell number, ODU/mm2) (MTLn3 cells [2]; MTLn3, 7.5 to 30 ug/ml, one-day exposure, light 15 min on days 2, 3, 4) | Light-induced cell death (MTLn3 cells [2]; initially present at 0.43 uM (30 ug/ml)) | Cell numbers, plates kept in the dark ([5]; no light) | Cell killing with light exposure (cell number, ODU/mm2) ([5]; one-day exposure, light 15 min on days 2, 3, 4) |
| --- | --- | --- | --- | --- | --- | --- | --- | --- | --- | --- | --- | --- | --- | --- | --- |
| Native Tf: Un-conjugated iron-saturated human transferrin (Sigma Chemical), used as control | seen to rise | competed out the FITC-Tf | – | – | – | – | – | – | – | – | – | – | – | – | – |
| chlorin e6 [Ce6, reference compound] | – | – | no cell killing effect | – | – | – | – | – | – | – | – | – | – | – | – |
| chlorin e6-transferrin [Ce6-Tf] | similar, albeit slightly lower rise | competed out the FITC-Tf | – | diminished the killing effect | light-dependent killing | no loss of cell numbers | did not | no loss of cell numbers | light-dependent killing | showed a decrease in cell numbers | no loss of cell numbers | light-dependent killing | very active | no loss of cell numbers | light-dependent killing |
